Patent US20100298141A1, “SUBSTITUTED PYRIDINE N-OXIDE HERBICIDES” (E. I. DU PONT DE NEMOURS AND COMPANY, priority 2007, published 2010)

Tests used:
crabgrass = assay: Test A pre-/postemergence greenhouse test; format: in vivo, Digitaria sanguinalis; settings: for Crabgrass, Large plant response rating: 0 to 100 scale; for Plant response rating, Crabgrass, Large: 0 to 100 scale where 0 is no effect and 100 is complete control
Summary of the method: (§1)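 Visual injury ratings, made relative to untreated controls roughly ten days after treatment, cover both preemergence and postemergence application. Compounds in a surfactant-containing non-phytotoxic solvent were sprayed onto the soil surface after sowing and, simultaneously, onto young plants at the one- to two-leaf stage.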

giant foxtail = assay: Test A pre-/postemergence greenhouse test; format: in vivo, Setaria faberi; settings: for Foxtail, Giant plant response rating: 0 to 100 scale; for Plant response rating, Foxtail, Giant: 0 to 100 scale where 0 is no effect and 100 is complete control
Summary of the method: as §1

morningglory [1] = assay: Test A pre-/postemergence greenhouse test; format: in vivo, Ipomoea spp.; settings: for Morningglory plant response rating: 0 to 100 scale; for Plant response rating, Morningglory: 0 to 100 scale where 0 is no effect and 100 is complete control
Summary of the method: as §1

wheat [2] = assay: Test A pre-/postemergence greenhouse test; format: in vivo, Triticum aestivum; settings: for Wheat plant response rating: 0 to 100 scale; for Plant response rating, Wheat: 0 to 100 scale where 0 is no effect and 100 is complete control
Summary of the method: as §1

corn = assay: Test A pre-/postemergence greenhouse test; format: in vivo, Zea mays; settings: for Corn plant response rating: 0 to 100 scale; for Plant response rating, Corn: 0 to 100 scale where 0 is no effect and 100 is complete control
Summary of the method: as §1

Italian ryegrass = assay: Test C pre-/postemergence test; format: in vivo, Lolium multiflorum; settings: Preemergence; for Ryegrass, Italian plant response rating: 62 g ai/ha, scale 0 to 100; for Plant response rating, Ryegrass, Italian: 31 g ai/ha, scale 0 to 100 (0 no effect, 100 complete control)
Summary of the method: (§2)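 Compounds in a non-phytotoxic solvent with surfactant applied preemergence to seeded pots and, at the same time, postemergence to plants 2–18 cm tall (1- to 4-leaf stage). Paddy tests: pots flooded to 3 cm, compound applied into the water, depth held throughout.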

wheat [3] = assay: Test C pre-/postemergence test; format: in vivo, Triticum aestivum; settings: Preemergence; for Wheat plant response rating: 62 g ai/ha, scale 0 to 100; for Plant response rating, Wheat: 31 g ai/ha, scale 0 to 100 (0 no effect, 100 complete control)
Summary of the method: as §2

catchweed bedstraw = assay: Test C pre-/postemergence test; format: in vivo, Galium aparine; settings: Preemergence; for Galium plant response rating: 62 g ai/ha, scale 0 to 100; for Plant response rating, Galium: 31 g ai/ha, scale 0 to 100 (0 no effect, 100 complete control); for Plant response rating (0 to 100), Galium: 250 g ai/ha
Summary of the method: as §2

bermudagrass = assay: Test C pre-/postemergence test; format: in vivo, Cynodon dactylon; settings: for Plant response rating, Bermudagrass: 31 g ai/ha; for Plant response rating (0 to 100), Bermudagrass: 250 g ai/ha
Summary of the method: as §2

Goosegrass = assay: Test C pre-/postemergence test; format: in vivo, Eleusin indica; settings: Preemergence; for Goosegrass plant response rating: 62 g ai/ha, scale 0 to 100; for Plant response rating, Goosegrass: 31 g ai/ha, scale 0 to 100 (0 no effect, 100 complete control); for Plant response rating (0 to 100), Goosegrass: 250 g ai/ha
Summary of the method: as §2

morningglory [4] = assay: Test C pre-/postemergence test; format: in vivo, Ipomoea coccinea; settings: Preemergence; for Morningglory plant response rating: 62 g ai/ha, scale 0 to 100; for Plant response rating, Morningglory: 31 g ai/ha, scale 0 to 100 (0 no effect, 100 complete control)
Summary of the method: as §2

yellow nutsedge = assay: Test C pre-/postemergence test; format: in vivo, Cyperus esculentus; settings: Preemergence; for Nutsedge, Yellow plant response rating: 62 g ai/ha, scale 0 to 100; for Plant response rating, Nutsedge, Yellow: 31 g ai/ha, scale 0 to 100 (0 no effect, 100 complete control)
Summary of the method: as §2

pigweed = assay: Test C pre-/postemergence test; format: in vivo, Amaranthus retroflexus; settings: Preemergence; for Pigweed plant response rating: 62 g ai/ha, scale 0 to 100; for Plant response rating, Pigweed: 31 g ai/ha, scale 0 to 100 (0 no effect, 100 complete control)
Summary of the method: as §2

soybean = assay: Test C pre-/postemergence test; format: in vivo, Glycine max; settings: Preemergence
Summary of the method: as §2

[5] = tested on: common (oilseed) sunflower; assay: Test C pre-/postemergence test; format: in vivo, Helianthus annuus; settings: Preemergence; for Sunflower plant response rating: 62 g ai/ha, scale 0 to 100
Summary of the method: as §2

umbrella sedge = assay: Test C flooded paddy test; format: in vivo, Cyperus difformis; settings: Flood
Summary of the method: (§3)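 Test compounds are applied straight into paddy water held 3 cm above the soil surface, with that flood maintained for the whole test. After 13 to 15 days in the greenhouse, each species is scored visually relative to controls.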

barnyardgrass = assay: Test C flooded paddy test; format: in vivo, Echinochloa crus-galli; settings: Flood
Summary of the method: as §3

[6] = Postemergence, 125 g ai/ha, 0 is no effect, 100 is complete control
[7] = Postemergence, 500 g ai/ha, 0 is no effect, 100 is complete control
[8] = Preemergence, 125 g ai/ha, 0 no effect, 100 complete control
[9] = 62 g ai/ha, Preemergence, scale 0 to 100 (0 no effect, 100 complete control)
[10] = Preemergence, scale 0 to 100 (0 no effect, 100 complete control)
[11] = preemergence, 125 g ai/ha, scale 0 (no effect) to 100 (complete control)
[12] = 31 g ai/ha, scale 0 to 100 (0 no effect, 100 complete control)
[13] = 62 g ai/ha, scale 0 to 100, 0 no effect, 100 complete control, 13 to 15 days
[14] = 125 g ai/ha, scale 0 to 100, 0 no effect, 100 complete control, 13 to 15 days
[15] = 250 g ai/ha, scale 0 to 100, 0 no effect, 100 complete control, 13 to 15 days

Cc1cc[n+]([O-])c([S+]([O-])Cc2c(C(F)(F)F)nn(C)c2OCC(F)(F)F)c1 (racemic) [Compound 30]
Crabgrass, Large plant response rating (crabgrass; [6]): 70 | Crabgrass, Large plant response rating (crabgrass; [7]): 90 | Crabgrass, Large plant response rating (crabgrass; [8]): 100 | Plant response rating, Crabgrass, Large (crabgrass; Preemergence, 500 g ai/ha): 100 | Foxtail, Giant plant response rating (giant foxtail; [6]): 80 | Foxtail, Giant plant response rating (giant foxtail; [7]): 90 | Foxtail, Giant plant response rating (giant foxtail; [8]): 100 | Plant response rating, Foxtail, Giant (giant foxtail; Preemergence, 500 g ai/ha): 100 | Morningglory plant response rating (morningglory [1]; [6]): 70 | Morningglory plant response rating (morningglory [1]; [7]): 90 | Morningglory plant response rating (morningglory [1]; [8]): 100 | Plant response rating, Morningglory (morningglory [1]; Preemergence, 500 g ai/ha): 100 | Wheat plant response rating (wheat [2]; [6]): 60 | Wheat plant response rating (wheat [2]; [7]): 70 | Wheat plant response rating (wheat [2]; [8]): 80 | Plant response rating, Wheat (wheat [2]; Preemergence, 500 g ai/ha): 90 | Corn plant response rating (corn; [6]): 50 | Corn plant response rating (corn; [7]): 60 | Corn plant response rating (corn; [8]): 0 | Plant response rating, Corn (corn; Preemergence, 500 g ai/ha): 70 | Ryegrass, Italian plant response rating (Italian ryegrass): 70 | Plant response rating, Ryegrass, Italian (Italian ryegrass): 0 | Wheat plant response rating (wheat [3]): 25 | Plant response rating, Wheat (wheat [3]): 0 | Galium plant response rating (catchweed bedstraw): 100 | Plant response rating, Galium (catchweed bedstraw): 100 | Plant response rating (0 to 100), Galium (catchweed bedstraw): 100 | Bermudagrass plant response rating (bermudagrass; [9]): 100 | Plant response rating, Bermudagrass (bermudagrass; [10]): 100 | Plant response rating (0 to 100), Bermudagrass (bermudagrass; Preemergence): 100 | Bermudagrass plant response rating (bermudagrass; [11]): 100 | Goosegrass plant response rating (Goosegrass): 100 | Plant response rating, Goosegrass (Goosegrass): 98 | Plant response rating (0 to 100), Goosegrass (Goosegrass): 100 | Morningglory plant response rating (morningglory [4]): 100 | Plant response rating, Morningglory (morningglory [4]): 100 | Nutsedge, Yellow plant response rating (yellow nutsedge): 70 | Plant response rating, Nutsedge, Yellow (yellow nutsedge): 65 | Pigweed plant response rating (pigweed): 100 | Plant response rating, Pigweed (pigweed): 100 | Plant response rating, Soybean (soybean; [12]): 60 | Sunflower plant response rating [5]: 70 | Plant response rating, Sunflower [5, 12]: 40 | Plant response rating, Sedge, Umbrella (umbrella sedge; [12]): 80 | Plant response rating, Sedge, Umbrella (umbrella sedge; [13]): 100 | Plant response rating, Sedge, Umbrella (umbrella sedge; [14]): 100 | Plant response rating, Sedge, Umbrella (umbrella sedge; [15]): 100 | Plant response rating, Barnyardgrass (barnyardgrass; [12]): 0 | Plant response rating, Barnyardgrass (barnyardgrass; [13]): 0 | Plant response rating, Barnyardgrass (barnyardgrass; [14]): 20 | Plant response rating, Barnyardgrass (barnyardgrass; [15]): 65

CC(c1c(C(F)(F)F)nn(C)c1OCC(F)(F)F)S(=O)(=O)c1cccc[n+]1[O-] (racemic) [Compound 33]
Crabgrass, Large plant response rating (crabgrass; [6]): 90 | Crabgrass, Large plant response rating (crabgrass; [7]): 90 | Crabgrass, Large plant response rating (crabgrass; [8]): 90 | Plant response rating, Crabgrass, Large (crabgrass; Preemergence, 500 g ai/ha): 100 | Foxtail, Giant plant response rating (giant foxtail; [6]): 90 | Foxtail, Giant plant response rating (giant foxtail; [7]): 90 | Foxtail, Giant plant response rating (giant foxtail; [8]): 100 | Plant response rating, Foxtail, Giant (giant foxtail; Preemergence, 500 g ai/ha): 100 | Morningglory plant response rating (morningglory [1]; [6]): 60 | Morningglory plant response rating (morningglory [1]; [7]): 90 | Morningglory plant response rating (morningglory [1]; [8]): 90 | Plant response rating, Morningglory (morningglory [1]; Preemergence, 500 g ai/ha): 90 | Wheat plant response rating (wheat [2]; [6]): 60 | Wheat plant response rating (wheat [2]; [7]): 70 | Wheat plant response rating (wheat [2]; [8]): 60 | Plant response rating, Wheat (wheat [2]; Preemergence, 500 g ai/ha): 100 | Corn plant response rating (corn; [6]): 50 | Corn plant response rating (corn; [7]): 70 | Corn plant response rating (corn; [8]): 70 | Plant response rating, Corn (corn; Preemergence, 500 g ai/ha): 80 | Ryegrass, Italian plant response rating (Italian ryegrass): 80 | Plant response rating, Ryegrass, Italian (Italian ryegrass): 70 | Wheat plant response rating (wheat [3]): 50 | Plant response rating, Wheat (wheat [3]): 30 | Galium plant response rating (catchweed bedstraw): 100 | Plant response rating, Galium (catchweed bedstraw): 100 | Plant response rating (0 to 100), Galium (catchweed bedstraw): 100 | Bermudagrass plant response rating (bermudagrass; [9]): 100 | Plant response rating, Bermudagrass (bermudagrass; [10]): 100 | Plant response rating (0 to 100), Bermudagrass (bermudagrass; Preemergence): 100 | Bermudagrass plant response rating (bermudagrass; [11]): 100 | Goosegrass plant response rating (Goosegrass): 100 | Plant response rating, Goosegrass (Goosegrass): 100 | Plant response rating (0 to 100), Goosegrass (Goosegrass): 100 | Morningglory plant response rating (morningglory [4]): 100 | Plant response rating, Morningglory (morningglory [4]): 100 | Nutsedge, Yellow plant response rating (yellow nutsedge): 100 | Plant response rating, Nutsedge, Yellow (yellow nutsedge): 100 | Pigweed plant response rating (pigweed): 100 | Plant response rating, Pigweed (pigweed): 100 | Soybean plant response rating (soybean; 62 g ai/ha, scale 0 to 100): 60 | Sunflower plant response rating [5]: 0 | Plant response rating, Sedge, Umbrella (umbrella sedge; [12]): 80 | Plant response rating, Sedge, Umbrella (umbrella sedge; [13]): 90 | Plant response rating, Sedge, Umbrella (umbrella sedge; [14]): 95 | Plant response rating, Sedge, Umbrella (umbrella sedge; [15]): 95 | Plant response rating, Barnyardgrass (barnyardgrass; [12]): 30 | Plant response rating, Barnyardgrass (barnyardgrass; [13]): 30 | Plant response rating, Barnyardgrass (barnyardgrass; [14]): 30 | Plant response rating, Barnyardgrass (barnyardgrass; [15]): 80
